Laboratory results reported in patent US7935525B2, “Inhibition of ATF2 activity to treat cancer” (Mount Sinai School of Medicine, priority 2001, dated 2011).
Entries after “also recorded” stand apart in the source; their conditions may differ. No end group written: not given here.

Columns and labels:
Jun2-Luc = Jun2-Luc reporter in ATF2 null cells; assay type: cell-based
[1] = system: ATF2 transcriptional activity; test: Jun2 promoter reporter in Jun null fibroblasts; assay type: cell-based
[2] = system: human melanocytes (FOM71); test: Apoptosis by FACS (hypodiploid fraction); assay type: cell-based; conditions: transient peptide expression; UV 75 J/m^2; 36 h
Experimental: (§1) Treatment and apoptosis studies of stably transfected melanoma cells. Cells were exposed to UVC at 75 J/m^2 as previously described (Ronai, Z., et al., Oncogene 1998; 16:523-531). SB203580 (1-10 μM) (Calbiochem®, San Diego, Calif.), NCS (50-100 ng/ml) and mitomycin C (MMC) (0.2-1 μM) were used to treat melanoma cells. Flow cytometric analysis was performed on a FACSCalibur™ flow cytometer (Becton Dickinson) using CellQuest™ software as described previously (Nicoletti et al., J. Immunol. Methods 1991; 139:271-279). Cells were pelleted and resuspended in 0.5 ml of hypotonic buffer with 0.1% Triton X-100 containing PI (40 μg/ml) and DNase-free RNase A (1 mg/ml). Cells were incubated at 37° C. for 30 min and analyzed on a FACSCalibur™ flow cytometer (Becton Dickinson). The percentage of cells to the left of the diploid G0/1 peak, characteristic of hypodiploid cells that have lost DNA, was defined as the percentage of apoptotic cells. Analysis was performed with light scatter gating. Surface expression of Fas was determined using anti-Fas-PE antibody (PharMingen® CA) and flow cytometric analysis. Cell surface expression is measured as mean fluorescence intensity (MFI).

[3] = system: 293T human kidney embryonic cells; test: Apoptosis by FACS (hypodiploid fraction); assay type: cell-based; conditions: peptide-expressing 293T; normal growth conditions
Experimental: [Worded in the source for another cell line; this cell line is reported under the same test.] as §1

SW1 melanoma tumors = test: Growth of SW1 tumors in FasL-deficient GLD mice; assay type: in vivo; conditions: compared with C3H
Experimental: (§2) Tumor growth and metastasis evaluation in vivo. Cell lines established in culture to constitutively or inducibly express the peptide were injected into mice subcutaneously (S.C.). LU1205, FEMX and SW-1 cells that expressed control or peptide II were trypsinized, resuspended in PBS and injected SC (1×10^6) into 6-7 week old mice in the lower flank. When the tumor reached the size of about 50 mm^3, 5 μM of SB203580 was injected into four areas of the LU1205 tumors every 4 days during a 2-week period. For FEMX tumors UCN-01 (2.5 mg/kg) was fed by gavage twice a day, three times per week for a total of 2 weeks. Tumor growth was monitored every two days. SW-1 cells expressing peptide II under tet-inducible vector were injected SC (1×10^6). When tumors reached a size of about 50 mm^3, the mice received doxycycline in their drinking water ([…]) for a total of 2-4 weeks. At the end of the experiment, the tumors were excised and weighed. The lungs and other organs were subjected to histopathological examination to detect metastatic lesions.

[4] = system: Adriamycin-resistant MCF7 cell line (MCF7-Adr); test: Apoptosis by FACS (hypodiploid fraction); assay type: cell-based, human; conditions: peptide-expressing MCF7-Adr; neo controls 3-fold; 36 h
Experimental: [Worded in the source for another cell line; this cell line is reported under the same test.] as §1

[5] = system: MCF7 breast cancer-derived cell line; test: Apoptosis by FACS (hypodiploid fraction); assay type: cell-based, human; conditions: peptide-expressing MCF7
Experimental: [Worded in the source for another cell line; this cell line is reported under the same test.] as §1

[6] = system: WM1552 early-phase melanoma cell line; test: Apoptosis by FACS (hypodiploid fraction); assay type: cell-based, human; conditions: peptide-expressing WM1552; UV-C 75 J/m2; 36 h
Experimental: as §1

FEMX cells = test: Apoptosis by FACS (hypodiploid fraction); assay type: cell-based, human
Experimental: as §1

JNK = test: In vitro phosphorylation of the peptide; assay type: biochemical
[7] = system: LU1205 melanoma cell line; test: Colony forming efficiency (CFE) resistance assay; assay type: cell-based, human
Experimental: (§3) Radiation resistance. Cells (500 or 1500 per well) were plated in triplicates on 6 well plates, 24 h before treatment (Ronai et al., Oncogene 1998; 16:523-531). In all cases, plating efficiency was pre-determined so that number of cell plated was normalized respectively. Colonies (greater than 50 cells per clone) were stained with crystal violet solution (3% in 10% methanol and PBS), 14 days After treatment. % of CFE in each treatment group was calculated based on total CFE formed in the respective controls (100%).

FEMX melanoma cell line = test: Colony forming efficiency (CFE) resistance assay; assay type: cell-based, human
Experimental: as §3

LU1205 tumor cells = test: Growth of transplanted LU1205 tumors in mice; assay type: in vivo
Experimental: as §2

p38 = p38 (Homo sapiens, UniProt Q16539); test: In vitro phosphorylation of the peptide; assay type: biochemical
Sequence of p38 (Q16539 whole entry): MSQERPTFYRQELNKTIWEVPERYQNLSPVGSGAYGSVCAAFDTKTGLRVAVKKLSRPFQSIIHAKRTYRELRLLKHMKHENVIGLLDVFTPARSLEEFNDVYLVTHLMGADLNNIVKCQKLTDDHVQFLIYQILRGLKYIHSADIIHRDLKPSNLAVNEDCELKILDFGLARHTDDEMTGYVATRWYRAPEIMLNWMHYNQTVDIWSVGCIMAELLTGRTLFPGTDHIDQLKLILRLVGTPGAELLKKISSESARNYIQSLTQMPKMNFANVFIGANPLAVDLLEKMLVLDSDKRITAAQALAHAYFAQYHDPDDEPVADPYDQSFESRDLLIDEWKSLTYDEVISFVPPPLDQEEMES

AP1 complex = test: Transcriptional activity mediated from AP1 target sequences; assay type: cell-based; conditions: peptide-expressing melanoma cells
SW1 cells = test: Cell cycle distribution after synchronization and serum stimulation; assay type: cell-based, mouse; conditions: 18-24 h after serum stimulation of synchronized cells
ATF2 = ATF2 phosphorylation in peptide-expressing melanoma cells; assay type: cell-based, human; conditions: vs control vector cells
SW1 tumors = test: cDNA microarray expression profiling of SW1 tumors; assay type: in vivo, mouse
Experimental: cDNA microarray hybridizations. The 10 k mouse Gem 2 gene set (Incyte Genomics Inc, Palo Alto Calif.) was printed at the NCI on poly-L lysine coated glass using Biorobotics TASII arrayer (Cambridge, England). All protocols for the manufacturing and hybridization of microarrays are available at the NCI web site. Approximately 20 μg of total RNA was used in the reverse transcription reaction to directly label the probe with either Cy-5 dUTP or Cy-3 dUTP (Amersham®). Hybridizations were performed at 65° C. for 12-18 h in a hybridization volume of […]. The hybridized arrays were scanned using an Axon GenePix 4000® scanner (Union city, CA) and fluorescent data were collected using GenePix™ software.
Data Analysis. The axon image data for each microarray was uploaded to the NCI mAdb database for subsequent analysis using a variety of statistical web based tools. Gene clustering analysis was performed using the clustering algorithm and tree view software developed by Mike Eisen (Stanford, Calif.).

[8] = tumors expressing peptide vs control vector

peptide II: N-terminal polypeptide fragment of ATF2, amino acid residues 50-100, expressed from pcDNA3 with HA-penetratin tag (EMTLKFGPARNDSVIVADQTPTPTRFLKNCEEVGLFNELASPFENEFKKAS; also: HA-penetratin tag, position not given here; UniProt P15336 50-100, looked up, fragment)
Jun2-Luc activities (Jun2-Luc): did not affect
transcriptional activity mediated from the Jun2 promoter [1]: marked inhibition
sensitivity to undergo UV-induced apoptosis [2]: did not cause a significant increase
increase in the degree of basal apoptosis [3]: 5 fold
blocking growth of SW1 tumors (SW1 melanoma tumors): as efficient in blocking growth
increase in apoptosis following UV-treatment [4]: 8 fold
increase in sensitivity to UCN-01 elicited apoptosis [5]: ~2 fold
increase in degree of apoptosis following UV-treatment relative to non-irradiated cells ([5]; neo control 4-fold, 36 h): ~9 fold
effect on the basal level of apoptosis ([5]; no treatment): minimal effect
sensitization to UV-induced apoptosis [6]: no longer was able to elicit sensitization
increase in the degree of UCN-01-elicited apoptosis (FEMX cells; peptide-expressing FEMX vs parent): > 3 fold
apoptotic fraction of UV-treated cells (FEMX cells; peptide-expressing FEMX, UV-C 75 J/m2, 36 h, neo control 13%): 28%
phosphorylation of the peptide by JNK (JNK): Neither JNK nor p38 was found capable of phosphorylating
effects on the sensitivity to MMC (CFE) ([7]; peptide-expressing LU1205, MMC): much less pronounced effects
decrease in the % of CFE ([7]; peptide-expressing LU1205 vs neo control, UV-C 9-36 J/m^2, colonies at 14 days): ≤ 3 fold
sensitivity to NCS (CFE) ([7]; peptide-expressing melanoma cells, NCS): did not reveal substantial differences
decrease in the fraction of CFE (FEMX melanoma cell line; peptide-expressing FEMX vs FEMX neo, 1 µM MMC, 14 days): ≤ 10 fold
decrease in % of CFE (FEMX melanoma cell line; peptide-expressing FEMX vs neo control, UV-C 9-36 J/m^2, colonies at 14 days): up to 10 fold
inhibition of tumor growth (LU1205 tumor cells; combination: peptide-expressing LU1205 + SB203580): significant inhibition of tumor growth; also recorded: more effective
tumor cell growth (LU1205 tumor cells; single agent: inhibitor injected into tumor, or peptide expressed in tumor cells): grew much more slowly
phosphorylation of the peptide by p38 (p38): Neither JNK nor p38 was found capable of phosphorylating
transcriptional activities mediated by AP1 target sequences (AP1 complex): lower
number of cells in the S-phase, lower than control cell population (SW1 cells): 2 fold
ATF2 phosphorylation after UV-treatment (ATF2; UV-treated): reduced
degree of ATF2 phosphorylation (ATF2; non-stressed growth conditions): higher degree of ATF2 phosphorylation
expression of ATF2 (SW1 tumors; four independent experiments): downregulated
expression of ATF4 transcripts (SW1 tumors; four independent experiments): increase
transcripts of interleukin-1 beta, cullin 3, kinesin-associated protein 3, ATF3 and membrane metallo-endopeptidase (SW1 tumors; tumors expressing peptide): up-regulated
transcripts of tyrosine kinase 2, metallothionein 2 and ubiquitin-specific protease 18 (SW1 tumors; tumors expressing peptide): downregulated
expression of Fas-associated genes (SW1 tumors; [8]): Downregulation
expression of growth-associated genes (SW1 tumors; [8]): consistent downregulation
expression of interferon-associated genes (SW1 tumors; [8]): consistent downregulation
expression of tumor necrosis factor-related genes (and other tumor antigens) (SW1 tumors; [8]): strongly upregulated
